Reference: patent US20190106460A1, “BINDING INHIBITORS OF THE BETA. TRANSDUCIN REPEAT-CONTAINING PROTEIN” (priority 2011, published 2019)
Like-named read-outs stand apart in the source and are kept apart here. Starred links: 1 amine or outer side, 2 acyl side, 3 side chain; linkers in the order of their positions; H or OH if unused. Non-standard residues stand in square brackets, D forms with d. Residues, ends and D or L forms follow the SMILES beside them. Phe(4-NO2) = N[C@@H](Cc1ccc([N+](=O)[O-])cc1)C(=O)O; Phe(3-F) = N[C@@H](Cc1cccc(F)c1)C(=O)O; Phe(4-F) = N[C@@H](Cc1ccc(F)cc1)C(=O)O; 1Nal = N[C@@H](Cc1cccc2ccccc12)C(=O)O; Phe(2-F) = N[C@@H](Cc1ccccc1F)C(=O)O; Maleoyl = O=C(/C=C\C(=O)[*:2])[*:1]; Suc = O=C(CCC(=O)[*:2])[*:1]

Experiments:
[1] = biological target: FBW7/Skp1 (Homo sapiens, UniProt Q969H0); experiment: Selectivity assay vs other E3s: Fbw7; type: biochemical; settings: for inhibition at 100 µM: value in brackets, read-out: % Inhibition Fbw7 @ (100 μM); for inhibition at 10 µM: read-out: % Inhibition Fbw7 @ 10 μM
Chain of FBW7/Skp1 (Q969H0 whole entry, species assumed): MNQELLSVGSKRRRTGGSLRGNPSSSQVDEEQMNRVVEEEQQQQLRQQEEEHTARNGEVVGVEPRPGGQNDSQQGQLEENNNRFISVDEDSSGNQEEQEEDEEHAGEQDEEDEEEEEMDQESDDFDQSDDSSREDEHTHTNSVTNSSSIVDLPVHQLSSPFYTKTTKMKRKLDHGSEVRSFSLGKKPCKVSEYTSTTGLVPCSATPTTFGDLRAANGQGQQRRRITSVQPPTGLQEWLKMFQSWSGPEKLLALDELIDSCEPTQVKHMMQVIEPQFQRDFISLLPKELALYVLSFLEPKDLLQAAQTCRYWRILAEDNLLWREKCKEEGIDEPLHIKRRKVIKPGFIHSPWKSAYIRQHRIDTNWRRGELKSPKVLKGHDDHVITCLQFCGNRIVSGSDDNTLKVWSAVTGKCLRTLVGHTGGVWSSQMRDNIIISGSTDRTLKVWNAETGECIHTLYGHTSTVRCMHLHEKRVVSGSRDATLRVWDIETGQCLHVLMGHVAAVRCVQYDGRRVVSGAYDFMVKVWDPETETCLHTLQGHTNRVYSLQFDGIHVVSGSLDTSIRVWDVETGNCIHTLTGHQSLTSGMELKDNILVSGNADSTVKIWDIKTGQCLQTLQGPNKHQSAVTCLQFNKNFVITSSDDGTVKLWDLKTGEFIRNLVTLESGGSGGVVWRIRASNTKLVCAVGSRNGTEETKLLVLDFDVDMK
Chain of FBW7/Skp1 (P63208 whole entry partner, species assumed): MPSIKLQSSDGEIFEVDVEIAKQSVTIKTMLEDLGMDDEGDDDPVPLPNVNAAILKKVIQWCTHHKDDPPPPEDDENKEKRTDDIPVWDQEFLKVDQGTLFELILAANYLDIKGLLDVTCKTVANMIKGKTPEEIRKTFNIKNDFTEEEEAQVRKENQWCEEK
Chain of FBW7/Skp1 (Q13616 whole entry partner, species assumed): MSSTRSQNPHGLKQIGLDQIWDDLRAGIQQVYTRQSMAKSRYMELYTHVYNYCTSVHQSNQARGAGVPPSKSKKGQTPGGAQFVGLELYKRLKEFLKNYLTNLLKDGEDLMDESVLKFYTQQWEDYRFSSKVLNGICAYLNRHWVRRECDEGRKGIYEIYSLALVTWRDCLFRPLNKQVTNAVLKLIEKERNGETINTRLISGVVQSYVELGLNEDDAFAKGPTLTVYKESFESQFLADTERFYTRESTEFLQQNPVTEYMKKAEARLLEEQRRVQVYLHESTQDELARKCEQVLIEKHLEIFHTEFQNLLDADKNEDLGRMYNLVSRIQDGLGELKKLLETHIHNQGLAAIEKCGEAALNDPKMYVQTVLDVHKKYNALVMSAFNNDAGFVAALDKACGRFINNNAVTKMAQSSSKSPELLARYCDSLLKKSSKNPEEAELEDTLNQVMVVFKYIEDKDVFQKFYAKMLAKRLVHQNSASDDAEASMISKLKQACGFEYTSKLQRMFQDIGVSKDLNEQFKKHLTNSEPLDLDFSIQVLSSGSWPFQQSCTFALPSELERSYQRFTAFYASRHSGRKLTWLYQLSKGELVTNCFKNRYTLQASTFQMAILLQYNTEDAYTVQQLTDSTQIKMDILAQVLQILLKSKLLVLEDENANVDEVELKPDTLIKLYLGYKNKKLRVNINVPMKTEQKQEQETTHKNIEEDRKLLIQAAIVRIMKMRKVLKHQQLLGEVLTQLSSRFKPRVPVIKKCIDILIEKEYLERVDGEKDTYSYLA
Chain of FBW7/Skp1 (P62877 whole entry partner, species assumed): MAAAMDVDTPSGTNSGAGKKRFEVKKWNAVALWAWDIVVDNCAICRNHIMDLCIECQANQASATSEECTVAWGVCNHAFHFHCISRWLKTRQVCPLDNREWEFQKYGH
How it was run: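 FBW7/Skp1 E3 ubiquitination of cyclin E substrate in 50 mM HEPES pH 7.5, 75 mM NaCl, 1 mM DTT; preincubated 30 min at room temperature before Mg/ATP, then 60 min more. Products resolved by 10% SDS-PAGE and immunoblotted with anti-cyclin E.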

[2] = biological target: Skp2 (Homo sapiens, UniProt Q13309); experiment: Selectivity assay vs other E3s: Skp2; type: biochemical; settings: for inhibition at 100 µM: value in brackets, read-out: % Inhibition Skp2 @ (100 μM); for inhibition at 10 µM: read-out: % Inhibition Skp2 @ 10 μM
Chain of Skp2 (Q13309 whole entry, species assumed): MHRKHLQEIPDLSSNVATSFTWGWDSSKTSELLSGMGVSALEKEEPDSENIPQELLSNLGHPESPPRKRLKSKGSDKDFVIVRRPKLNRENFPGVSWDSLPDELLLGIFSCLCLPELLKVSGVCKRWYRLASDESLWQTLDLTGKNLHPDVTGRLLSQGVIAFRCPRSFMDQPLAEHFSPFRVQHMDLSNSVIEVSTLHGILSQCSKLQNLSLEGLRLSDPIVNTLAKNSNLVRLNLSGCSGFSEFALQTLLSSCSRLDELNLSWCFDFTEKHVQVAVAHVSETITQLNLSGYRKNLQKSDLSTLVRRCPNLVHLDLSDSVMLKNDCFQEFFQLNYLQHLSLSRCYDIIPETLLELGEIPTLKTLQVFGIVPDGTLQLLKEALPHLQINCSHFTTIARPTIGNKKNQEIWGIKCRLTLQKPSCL
Chain of Skp2 (P63208 whole entry partner, species assumed): as the sequence (P63208 whole entry partner, species assumed) above
Chain of Skp2 (Q13616 whole entry partner, species assumed): as the sequence (Q13616 whole entry partner, species assumed) above
Chain of Skp2 (P62877 whole entry partner, species assumed): as the sequence (P62877 whole entry partner, species assumed) above
How it was run: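 Skp2 ubiquitination was measured in master mixes of 50 mM Herpes buffer, pH 7.5, with 75 mM NaCl and 1 mM DTT, lacking Mg or ATP. Test compounds were preincubated for 30 minutes at room temperature, Mg/ATP was added for a further 60 minutes, and reactions were boiled in SDS loading buffer, resolved on 10% SDS-PAGE, blotted to nitrocellulose and probed with HRP-Streptavidin.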

[3] = biological target: βTrCP (Homo sapiens, UniProt Q9Y297); experiment: Fluorescence polarisation (FP) binding assay with fluorescein-tagged IκB peptide
Target sequence in this assay (P63208 whole entry partner, one chain of several): as the sequence (P63208 whole entry partner, species assumed) above

[4] = biological target: T1, βTrCP (Homo sapiens, UniProt Q9Y297); experiment: Biotin pull down assay with biotinylated IκB peptide; type: binding; settings: for Biotin Pulldown Assay 10 μM: 10 μM compound; for Biotin Pulldown Assay 100 μM: 100 μM compound
T1 sequence (Q9Y297 1-605): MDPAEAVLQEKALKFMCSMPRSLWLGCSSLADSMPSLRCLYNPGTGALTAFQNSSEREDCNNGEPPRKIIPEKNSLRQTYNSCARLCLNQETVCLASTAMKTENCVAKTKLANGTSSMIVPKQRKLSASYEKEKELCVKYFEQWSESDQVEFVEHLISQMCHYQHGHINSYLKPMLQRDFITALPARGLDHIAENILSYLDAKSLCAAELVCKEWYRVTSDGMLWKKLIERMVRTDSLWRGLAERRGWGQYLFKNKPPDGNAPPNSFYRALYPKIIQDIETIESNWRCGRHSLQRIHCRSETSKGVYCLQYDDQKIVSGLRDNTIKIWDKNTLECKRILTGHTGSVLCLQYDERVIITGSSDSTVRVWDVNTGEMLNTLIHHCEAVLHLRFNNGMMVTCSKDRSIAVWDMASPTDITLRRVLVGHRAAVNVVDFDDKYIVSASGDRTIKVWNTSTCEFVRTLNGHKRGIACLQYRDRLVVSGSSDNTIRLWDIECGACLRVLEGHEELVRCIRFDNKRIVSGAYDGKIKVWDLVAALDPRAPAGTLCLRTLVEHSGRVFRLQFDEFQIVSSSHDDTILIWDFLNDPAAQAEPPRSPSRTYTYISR

[5] = biological target: βTrCP/Skp1 (Homo sapiens, UniProt Q9Y297); experiment: Surface plasmon resonance (SPR), Biacore T200; type: binding; settings: apparent KD averaged over both surfaces
Chain of βTrCP/Skp1 (P63208 whole entry partner, one chain of several): as the sequence (P63208 whole entry partner, species assumed) above
Method: Surface Plasmon Resonance (SPR)
Experiments were carried out using the Biacore T200 SPR detection system. This system exploits the phenomenon of surface plasmon resonance (SPR) to monitor interactions between molecules. The system involves the attachment of one interacting partner to a surface (an appropriate sensor chip) while the other interacting partner is passed over it in solution. The binding of molecules to the surface generates an SPR response (measured in response units (RU)) that is proportional to the mass and amount of the biomolecule (in this case βTrCP/Skp1) bound to the chip. The relative responses obtained are dependent on the concentration of the molecule binding. At RUmaximum, the attached protein's binding sites are saturated. Binding events can be followed in real time and a range of interaction characteristics can be determined including kinetics, specificity of interactions and the concentration of specific molecules in a sample.
As βTrCP was His tagged, an NTA sensor chip was used. This sensor chip has a dextran surface matrix with immobilized nitrilotriacetic acid (NTA) which provides a means of capturing polyHis-tagged proteins through Nickel chelation. It was hoped that addition of Ni^+ would orient the protein in a specific (and hopefully active) manner as it is covalently immobilised via amine coupling. Addition of EDC:NHS (N-ethyl-N′-(3-[…])-carbodiimide:N-hydroxysuccinimide) converts carboxyl groups on the dextran sensor chip surface to succinamide esters which readily form covalent bonds with primary amines. Each chip contains four flow cells (each a separate surface) which means that compounds/peptides can be passed over different forms of βTrCP and a reference surface simultaneously. If binding to βTrCP is occurring, responses should be the same (accounting for differences in density of surface etc) on each surface.
Two different βTrCP protein complexes were immobilised on to an NTA biacore sensor chip. One included the GSTSkp1 fusion (HisβTrCP/GSTSkp1) while the other was immobilised after GST Removal by Thrombin (HisβTrCP/Skp1). To ensure that the GST moiety is completely removed from Skp1, βTrCP/GSTSkp1 was incubated with thrombin ((10units/mg protein) for at least 16 hours at room temperature in 10mMHEPES 150mMNaCl pH7.4+2 mM CaCl2. Thrombin and GST were removed from βTrCP/Skp1 by buffer exchange through a 50 KDa MWCO vivaspin concentrator.
Protein Immobilisation Procedure for NTA Chip
Ni+ (500 μM NiCl) loaded on to surface at a flow rate of 5 μl/min for 60s. EDC/NHS (activates dextran carboxylates) loaded at a flow rate of 5 μl/min for 240s. Protein ([protein]=100 nM to 1 μM) loaded at a flow rate of 10 μl/min for 180s. Strip solution (350 μM EDTA/1M NaCl) added at flow rate of 10 μl/min for 30s (to chelate excess Ni+ and remove non-covalently bound protein e.g. protein oligomers). Quench solution (ethanolamine) at flow rate of 5 μl/min for 240s (to deactivate surface molecules on the chip that have not crosslinked protein). The immobilisation buffer used was 10 mM HEPES pH 7.4, 150 mM NaCl,
GST Capture Procedure (for Immobilisation Via GSTSkp1)
EDC:NHS was injected at 5 μl/min for 4 min to activate surface for amine coupling (this converts carboxyl groups on the surface of the chip to succinamide esters that react with primary amines)
Anti-GST (60 μg/ml). was loaded at 10 μl/min for 4 min resulting in an increase in response units of 6730 (Biacore manual states it should result in ˜7000)
Ethanolamine was injected at 5 μl/min for 5 min to deactivate remaining unreacted esters at surface (quenching).
Injection of a low concentration of purified GST (from kit) was injected for 3 mins at 5 μl/min before running a regeneration cycle with glycine pH2.0 that disrupts the antibody-GST interaction. […]

[6] = biological target: β-TrCP1/Skp1 (Homo sapiens, UniProt Q9Y297); experiment: βTrCP ubiquitination assay (Ub assay); type: biochemical; settings: for Ub Assay 10 μM: 10 μM compound; for Ub Assay 100 μM: 100 μM compound
Chain of β-TrCP1/Skp1 (P63208 2-163 partner limits assumed, one chain of several): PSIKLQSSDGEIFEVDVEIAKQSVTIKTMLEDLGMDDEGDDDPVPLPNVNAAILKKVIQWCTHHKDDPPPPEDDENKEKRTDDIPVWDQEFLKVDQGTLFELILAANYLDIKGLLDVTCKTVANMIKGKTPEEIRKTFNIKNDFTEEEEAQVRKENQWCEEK
How it was run: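 Compounds tested in duplicate at 10 and 100 μM in βTrCP(IκBα) and βTrCP(β-catenin) cascades with UBE1 E1, UbcH3 E2 and biotinylated ubiquitin; substrate phosphorylation done without compound, ubiquitination steps with compound. Product captured on anti-c-Myc plates and detected with SA-Ru TAG by MSD electrochemiluminescence.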

[7] = Table 11, with spread, read-out: FP IC50/μM
[8] = Tables 1, 3, 7, 8, 10 nM fluorescein-tagged IκB peptide, read-out: FP Assay IC50/μM

Compound | inhibition at 100 µM [1] [%] | inhibition at 10 µM [1] [%] | inhibition at 100 µM [2] [%] | inhibition at 10 µM [2] [%] | IC50 [3, 7] [µM] | Biotin Pulldown Assay 10 μM [4] | Biotin Pulldown Assay 100 μM [4] | Kd [5] [µM] | Ub Assay 10 μM [6] | Ub Assay 100 μM [6] | IC50 [3, 8] [µM]
NC(=O)[C@H](CCC(=O)O)NC(=O)[C@H](Cc1ccc([N+](=O)[O-])cc1)NC(=O)[C@H](Cc1ccc(F)cc1)NC(=O)CNC(=O)[C@H](CCC(=O)O)NC(=O)CCC(=O)O [UBP005, Suc-EGF(4F)F(4NO2)E-NH2] (Suc-EG[Phe(4-F)][Phe(4-NO2)]E-NH2) | 0 | 0 | 0 | 0 | 1.21 ± 0.093 | no effect/ | inhibits | 0.507 ± 0.267 | reduces/ | inhibits | 
COc1ccc(C[C@H](NC(=O)[C@H](Cc2ccccc2F)NC(=O)CNC(=O)[C@H](CCC(=O)O)NC(=O)CCC(=O)O)C(=O)N[C@@H](CCC(=O)O)C(N)=O)cc1 [UBP006, Suc-EGF(2F)Y(Me)E-NH2] (Suc-EG[Phe(2-F)]Y(Me)E-NH2) | 4 | 0 | 4 | 0 | 3.28 ± 0.5 | no effect/ | reduces | 4.4 ± 0.82 | no effect/ | inhibits | 3.2
NC(=O)[C@H](CCC(=O)O)NC(=O)[C@H](Cc1ccccc1)NC(=O)[C@H](Cc1ccc(O)cc1)NC(=O)CNC(=O)[C@H](CCC(=O)O)NC(=O)CCC(=O)O [UBP007, Suc-EGYFE-NH2] (Suc-EGYFE-NH2) | 0 | 0 | 28 | 11 | 1.04 ± 0.101 | no effect/ | inhibits | 0.537 ± 0.117 | reduces/ | inhibits | 1
NC(=O)[C@H](CCC(=O)O)NC(=O)[C@H](Cc1ccc([N+](=O)[O-])cc1)NC(=O)[C@H](Cc1cccc(F)c1)NC(=O)CNC(=O)[C@H](CCC(=O)O)NC(=O)/C=C\C(=O)O [UBP008, Mal-EGF(3F)F(4NO2)E-NH2] (Maleoyl-EG[Phe(3-F)][Phe(4-NO2)]E-NH2) | 18 | 0 | 14 | 0 | 2.17 ± 0.425 | no effect/ | inhibits | 1.46 ± 0.035 | no effect/ | inhibits | 
NC(=O)[C@H](CCC(=O)O)NC(=O)[C@H](Cc1cccc2ccccc12)NC(=O)[C@H](Cc1ccc(O)cc1)NC(=O)CNC(=O)[C@H](CCC(=O)O)NC(=O)CCC(=O)O [UBP009, Suc-EGY1NalE-NH2] (Suc-EGY[1Nal]E-NH2) | 5 | 1 | 6 | 0 | 1.15 ± 0.222 | no effect/ | inhibits | 1.49 ± 0.625 | reduces/ | inhibits | 1.15
NC(=O)[C@H](CCC(=O)O)NC(=O)[C@H](Cc1cccc2ccccc12)NC(=O)[C@H](Cc1cccc(F)c1)NC(=O)CNC(=O)[C@H](CCC(=O)O)NC(=O)CCC(=O)O [UBP010, Suc-EGF(3F)1NalE-NH2] (Suc-EG[Phe(3-F)][1Nal]E-NH2) | 0 | 3 | 12 | 0 | 0.157 ± 0.037 | inhibits/ | inhibits | 0.32 ± 0.24 | inhibits/ | inhibits | 0.157
NC(=O)[C@H](CCC(=O)O)NC(=O)[C@H](Cc1cccc2ccccc12)NC(=O)[C@H](Cc1ccc([N+](=O)[O-])cc1)NC(=O)CNC(=O)[C@H](CCC(=O)O)NC(=O)CCC(=O)O [UBP011, Suc-EGF(4NO2)1NalE-NH2] (Suc-EG[Phe(4-NO2)][1Nal]E-NH2) | 28 | 14 | 6 | 12 | 1.31 ± 0.198 | reduces/ | inhibits | 1.96 ± 0.635 | reduces/ | inhibits | 
